Data on 18 compounds can be found in US20230340011A1 (Asteroid Therapeutics, priority 2022, published 2023).

For orientation: IC50 means the point on the concentration scale where inhibition reaches its midpoint. The low end stands for greater potency, the high end for weaker potency.

One assay deals with SREBP-2 (Homo sapiens (Human), UniProt Q12772). The assay can be described thus: In vitro assay SREBP-2: PathHunter U2OS SREBP-2 Nuclear Translocation Cell Line, U18666A-stimulated. It is filed as cell-based. The note with it: PathHunter U2OS SREBP-2 nuclear translocation cells, U18666A 10 μM, overnight (16 hours).
The next assay addresses LXRβ (Homo sapiens (Human), UniProt P55055). Kind of assay: In vitro assay LXRβ: PathHunter NHR CHO cells, LXRβ / Steroid Receptor Co-activator Peptide enzyme fragment complementation. The class given is cell-based. The note with it: PathHunter NHR CHO cells, full-length human LXRβ and SRCP, chemiluminescent signal; read-out: LXRβ PPI. The method in brief:
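Co-activator recruitment measured by chemiluminescence after signal generation. The CHO line carries full-length human LXRβ tagged with ProLink and an SRCP–enzyme acceptor fusion in the nucleus; cells sat overnight at 37° C before testing, in charcoal-dextran filtered serum medium with 1% final vehicle.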

Chain of LXRβ (P55055 whole entry, the tested form may be a part): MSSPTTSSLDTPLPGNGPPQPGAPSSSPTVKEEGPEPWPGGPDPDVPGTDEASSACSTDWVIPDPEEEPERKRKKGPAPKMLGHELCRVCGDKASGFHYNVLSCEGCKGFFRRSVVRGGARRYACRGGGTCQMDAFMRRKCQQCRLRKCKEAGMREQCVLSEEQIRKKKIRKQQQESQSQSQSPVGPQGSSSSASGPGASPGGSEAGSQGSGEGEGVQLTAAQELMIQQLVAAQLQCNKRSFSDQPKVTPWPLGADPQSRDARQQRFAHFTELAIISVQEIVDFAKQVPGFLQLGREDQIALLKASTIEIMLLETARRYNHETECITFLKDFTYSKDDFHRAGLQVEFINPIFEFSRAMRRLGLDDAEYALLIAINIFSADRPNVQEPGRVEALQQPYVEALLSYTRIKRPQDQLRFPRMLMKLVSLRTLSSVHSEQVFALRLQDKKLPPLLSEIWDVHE

Turning to `CC[C@]1(O)CC[C@@]2(C)C(=CC[C@H]3[C@@H]4CC[C@H]([C@H](C)CCC(=O)N5CCN(C(=O)OC)CC5)[C@@]4(C)CC[C@@H]32)C1` [Example 284, methyl 4-[(4R)-4-[(1R,3aS,3bS,7S,9aR,9bS,11aR)-7-ethyl-7-hydroxy-9a,11a-dimethyl-1H,2H,3H,3aH,3bH,4H,6H,7H,8H,9H,9aH,9bH,10H,11H,11aH-cyclopenta[a]phenanthren-1-yl]pentanoyl]piperazine-1-carboxylate], the IC50 against SREBP-2 lay in the range of 1 to 10 µM. Also, the EC50 at LXRβ is more than 10 µM.

For `C[C@H](CCC(=O)N1CCN(c2ncncc2C(F)(F)F)CC1)[C@H]1CC[C@H]2[C@@H]3CC=C4C[C@@H](O)CC[C@]4(C)[C@H]3CC[C@]12C` [Example 619, (R)-4-((3S,8S,9S,10R,13R,14S,17R)-3-hydroxy-10,13-dimethyl-2,3,4,7,8,9,10,11,12,13,14,15,16,17-tetradecahydro-1H-cyclopenta[a]phenanthren-17-yl)-1-(4-(5-(trifluoromethyl)pyrimidin-4-yl)piperazin-1-yl)pentan-1-one], at SREBP-2, the IC50 was less than 0.25 µM. The EC50 at LXRβ was more than 10 µM.

Consider `C[C@H](CCC(=O)N1CCN(C(=O)N2CCC[C@@H]2C)CC1)[C@H]1CC[C@H]2[C@@H]3CC=C4C[C@@H](O)CC[C@]4(C)[C@H]3CC[C@]12C` [Example 666, (R)-4-((3S,8S,9S,10R,13R,14S,17R)-3-hydroxy-10,13-dimethyl-2,3,4,7,8,9,10,11,12,13,14,15,16,17-tetradecahydro-1H-cyclopenta[a]phenanthren-17-yl)-1-(4-((S)-2-methylpyrrolidine-1-carbonyl)piperazin-1-yl)pentan-1-one], for which the IC50 against SREBP-2 is less than 0.25 µM. Further, the EC50 on LXRβ is more than 10 µM.

At SREBP-2, `CSC(=O)N1CCN(C(=O)CC[C@@H](C)[C@H]2CC[C@H]3[C@@H]4CC=C5C[C@@H](O)CC[C@]5(C)[C@H]4CC[C@]23C)CC1` [Example 551, (4R)-4-[(1R,3aS,3bS,7S,9aR,9bS,11aR)-7-hydroxy-9a,11a-dimethyl-1H,2H,3H,3aH,3bH,4H,6H,7H,8H,9H,9aH,9bH,10H,11H,11aH-cyclopenta[a]phenanthren-1-yl]-1-{4-[(methylsulfanyl)carbonyl]piperazin-1-yl}pentan-1-one] yielded an IC50 of less than 0.25 µM. Also, the EC50 at LXRβ is more than 10 µM.

Turning to `CNC(=O)C1(C)CCN(C(=O)CC[C@@H](C)[C@H]2CC[C@H]3[C@@H]4CC=C5C[C@@H](O)CC[C@]5(C)[C@H]4CC[C@]23C)CC1` [Example 86, 1-((R)-4-((3S,8S,9S,10R,13R,14S,17R)-3-hydroxy-10,13-dimethyl-2,3,4,7,8,9,10,11,12,13,14,15,16,17-tetradecahydro-1H-cyclopenta[a]phenanthren-17-yl)pentanoyl)-N,4-dimethylpiperidine-4-carboxamide], on SREBP-2, the IC50 fell in the range of 0.25 to 1 µM. Also, the EC50 at LXRβ is more than 10 µM.

Compound `CNC(=O)N1CCN(C(=O)CC[C@@H](C)[C@H]2CC[C@H]3[C@@H]4CC=C5C[C@@H](O)CC[C@]5(C)[C@H]4CC[C@]23C)CC1` [Example 337, 4-[(4R)-4-[(1R,3aS,3bS,7S,9aR,9bS,11aR)-7-hydroxy-9a,11a-dimethyl-1H,2H,3H,3aH,3bH,4H,6H,7H,8H,9H,9aH,9bH,10H,11H,11aH-cyclopenta[a]phenanthren-1-yl]pentanoyl]-N-methylpiperazine-1-carboxamide] had an IC50 against SREBP-2 of less than 0.25 µM. The EC50 on LXRβ is more than 10 µM.

In the case of `C[C@H](CCc1cccc(F)n1)[C@H]1CC[C@H]2[C@@H]3CC=C4C[C@@H](O)CC[C@]4(C)[C@H]3CC[C@]12C` [Example 161, (3S,8S,9S,10R,13R,14S,17R)-17-((R)-4-(6-fluoropyridin-2-yl)butan-2-yl)-10,13-dimethyl-2,3,4,7,8,9,10,11,12,13,14,15,16,17-tetradecahydro-1H-cyclopenta[a]phenanthren-3-ol], the IC50 against SREBP-2 was less than 0.25 µM. For the same compound, at LXRβ, the EC50 was in the range of 1 to 10 µM.

Compound `CCOc1cccnc1CC[C@@H](C)[C@H]1CC[C@H]2[C@@H]3CC=C4C[C@@H](O)CC[C@]4(C)[C@H]3CC[C@]12C` [Example 247, (1R,3aS,3bS,7S,9aR,9bS,11aR)-1-[(2R)-4-(3-ethoxypyridin-2-yl)butan-2-yl]-9a,11a-dimethyl-1H,2H,3H,3aH,3bH,4H,6H,7H,8H,9H,9aH,9bH,10H,11H,11aH-cyclopenta[a]phenanthren-7-ol] returned an IC50 on SREBP-2 of less than 0.25 µM. The EC50 at LXRβ lay within 0.25 to 1 µM.

With `C[C@H](CCC(=O)N1CCC(C)(CNS(C)(=O)=O)CC1)[C@H]1CC[C@H]2[C@@H]3CC=C4C[C@@H](O)CC[C@]4(C)[C@H]3CC[C@]12C` [Example 367, N-({1-[(4R)-4-[(1R,3aS,3bS,7S,9aR,9bS,11aR)-7-hydroxy-9a,11a-dimethyl-1H,2H,3H,3aH,3bH,4H,6H,7H,8H,9H,9aH,9bH,10H,11H,11aH-cyclopenta[a]phenanthren-1-yl]pentanoyl]-4-methylpiperidin-4-yl}methyl)methanesulfonamide], the IC50 at SREBP-2 was less than 0.25 µM. The EC50 at LXRβ was more than 10 µM.

The compound `CCC1(OC)CCCN(C(=O)CC[C@@H](C)[C@H]2CC[C@H]3[C@@H]4CC=C5C[C@@H](O)CC[C@]5(C)[C@H]4CC[C@]23C)C1` (stereo partly drawn) [Example 519, (R)-1-((R)-3-ethyl-3-methoxypiperidin-1-yl)-4-((3S,8S,9S,10R,13R,14S,17R)-3-hydroxy-10,13-dimethyl-2,3,4,7,8,9,10,11,12,13,14,15,16,17-tetradecahydro-1H-cyclopenta[a]phenanthren-17-yl)pentan-1-one] yielded an IC50 at SREBP-2 of less than 0.25 µM. Besides, the EC50 at LXRβ lay within 1 to 10 µM.

On to `CNC(=O)OC[C@@H](C)[C@H]1CC[C@H]2[C@@H]3CC=C4C[C@@H](O)CC[C@]4(C)[C@H]3CC[C@]12C` [Example 351, (S)-2-((3S,8S,9S,10R,13S,14S,17R)-3-hydroxy-10,13-dimethyl-2,3,4,7,8,9,10,11,12,13,14,15,16,17-tetradecahydro-1H-cyclopenta[a]phenanthren-17-yl)propyl methylcarbamate], for which the IC50 on SREBP-2 was less than 0.25 µM. Further, the EC50 on LXRβ is more than 10 µM.

`C[C@H](CCC(=O)N(C)C1CCN(C(=O)N2CCCC2)CC1)[C@H]1CC[C@H]2[C@@H]3CC=C4C[C@@H](O)CC[C@]4(C)[C@H]3CC[C@]12C` [Example 645, (4R)-4-[(1R,3aS,3bS,7S,9aR,9bS,11aR)-7-hydroxy-9a,11a-dimethyl-1H,2H,3H,3aH,3bH,4H,6H,7H,8H,9H,9aH,9bH,10H,11H,11aH-cyclopenta[a]phenanthren-1-yl]-N-methyl-N-[1-(pyrrolidine-1-carbonyl)piperidin-4-yl]pentanamide]: the IC50 at SREBP-2 is less than 0.25 µM. The EC50 at LXRβ is more than 10 µM.

In turn, `C[C@H](C(=O)Nc1ccncc1)[C@H]1CC[C@H]2[C@@H]3CC=C4C[C@@H](O)CC[C@]4(C)[C@H]3CC[C@]12C` [Example 600, (S)-2-((3S,8S,9S,10R,13S,14S,17R)-3-hydroxy-10,13-dimethyl-2,3,4,7,8,9,10,11,12,13,14,15,16,17-tetradecahydro-1H-cyclopenta[a]phenanthren-17-yl)-N-(pyridin-4-yl)propanamide] displayed an IC50 against SREBP-2 of 1 to 10 µM. Besides, on LXRβ, the EC50 was more than 10 µM.

In the case of `C[C@H](CCC(=O)N1CCC(OCc2ccncc2)CC1)[C@H]1CC[C@H]2[C@@H]3CC=C4C[C@@H](O)CC[C@]4(C)[C@H]3CC[C@]12C` [Example 546, (R)-4-((3S,8S,9S,10R,13R,14S,17R)-3-hydroxy-10,13-dimethyl-2,3,4,7,8,9,10,11,12,13,14,15,16,17-tetradecahydro-1H-cyclopenta[a]phenanthren-17-yl)-1-(4-(pyridin-4-ylmethoxy)piperidin-1-yl)pentan-1-one], on SREBP-2, the half-maximal inhibitory concentration (IC50) was less than 0.25 µM. Besides, the EC50 on LXRβ was more than 10 µM.

`C[C@H](CCc1ncccc1F)[C@H]1CC[C@H]2[C@@H]3CC=C4C[C@@H](O)CC[C@]4(C)[C@H]3CC[C@]12C` [Example 164, (3S,8S,9S,10R,13R,14S,17R)-17-((R)-4-(3-fluoropyridin-2-yl)butan-2-yl)-10,13-dimethyl-2,3,4,7,8,9,10,11,12,13,14,15,16,17-tetradecahydro-1H-cyclopenta[a]phenanthren-3-ol] came in with an IC50 against SREBP-2 of 0.25 to 1 µM. The EC50 on LXRβ was 0.25 to 1 µM.

Compound `COC(=O)N1CCC2(CCN(C(=O)CC[C@@H](C)[C@H]3CC[C@H]4[C@@H]5CC=C6C[C@@H](O)CC[C@]6(C)[C@H]5CC[C@]34C)C2)C1` (stereo partly drawn) [Example 554, Methyl 7-((R)-4-((3S,8S,9S,10R,13R,14S,17R)-3-hydroxy-10,13-dimethyl-2,3,4,7,8,9,10,11,12,13,14,15,16,17-tetradecahydro-1H-cyclopenta[a]phenanthren-17-yl)pentanoyl)-2,7-diazaspiro[4.4]nonane-2-carboxylate] came in with an IC50 at SREBP-2 of less than 0.25 µM. Also, on LXRβ, the EC50 is more than 10 µM.

As to `C[C@H](CCc1ncns1)[C@H]1CC[C@H]2[C@@H]3CC=C4C[C@@H](O)CC[C@]4(C)[C@H]3CC[C@]12C` [Example 174, (1R,3aS,3bS,7S,9aR,9bS,11aR)-9a,11a-dimethyl-1-[(2R)-4-(1,2,4-thiadiazol-5-yl)butan-2-yl]-1H,2H,3H,3aH,3bH,4H,6H,7H,8H,9H,9aH,9bH,10H,11H,11aH-cyclopenta[a]phenanthren-7-ol], the IC50 against SREBP-2 is 0.25 to 1 µM. Besides, the EC50 on LXRβ was in the range of 0.25 to 1 µM.

Turning to `C[C@H](CCc1ncco1)[C@H]1CC[C@H]2[C@@H]3CC=C4C[C@@H](O)CC[C@]4(C)[C@H]3CC[C@]12C` [Example 137, (3S,8S,9S,10R,13R,14S,17R)-10,13-dimethyl-17-((R)-4-(oxazol-2-yl)butan-2-yl)-2,3,4,7,8,9,10,11,12,13,14,15,16,17-tetradecahydro-1H-cyclopenta[a]phenanthren-3-ol], on SREBP-2, the IC50 is 0.25 to 1 µM. The EC50 on LXRβ lay within 1 to 10 µM.
